Source: patent publication US12448388B2, “PRMT5 inhibitors and uses thereof” (Gilead Sciences, Inc., priority 2023, dated 2025)
In brackets after ≈: the same amount, converted by molar mass. Read-outs that look alike come from different tables or passages of the source.

What was measured:
[1] = Cell viability assay (CellTiter-Glo, 7 days), HCT116 WT; type: cell-based; details: human, HCT116 WT cells, 7 days of treatment, CTG
How it was run: (§1)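 PRMT5 inhibitors were serially diluted in DMSO and acoustically spotted as dose-response series into plates before cell seeding. Cells were grown with compound for 7 days at 37 °C, 5% CO2, 90% humidity, then viability was read by CellTiter-Glo luminescence and reported as CC50.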

[2] = PBS solubility (kinetic solubility from DMSO stocks); type: physicochemical; details: 22 °C, aqueous buffer, kinetic from dmso stock; 1x PBS pH 7.4, 1.0% DMSO, 24-hour incubation at ambient temperature
How it was run: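 Kinetic solubility in 1× PBS pH 7.4 with 1.0% final DMSO, maximum theoretical concentration 100 μM from 10 mM stock. After 24 h at ambient temperature (20.8-24.0 °C) the samples were vacuum-filtered and filtrates quantified by nitrogen detection against a calibration curve. Values were background-corrected and reported in μM and μg/mL.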

[3] = system: HCT116 MTAP-deleted cell lines; test: Cell viability assay (CellTiter-Glo, 7 days), HCT116 MTAP-deleted; type: cell-based; details: for Selectivity: HCT116 WT CC50 versus HCT116 MTAP^del CC50; for plasma-adjusted CC50 (paCC50): paCC50 = CC50-HCT116-MTAP^del * (% free CCM/% free human plasma); for CC50: Homo sapiens, HCT116 MTAP-deleted
How it was run: as §1

[4] = MDR1/BCRP assay: permeability in cPgp-KO-MDCK-WT cells; type: in vitro ADME; details: dog, pH 7.4
How it was run: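 Compounds at 1 μM were dosed apically or basolaterally on 5-day confluent cPgp-KO-MDCK monolayers, HBSS/HEPES/glucose pH 7.4 donor and receiver with 1% BSA, duplicate wells. Receiver samples at 2 h were analysed by LC-MS/MS to give A→B and B→A Papp plus % recovery; TEER confirmed integrity.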

[5] = Hepatocyte stability assay, human; type: in vitro ADME; details: human hepatocytes, 1 μM
Description: BioreclamationIVT (Baltimore, MD) provided the cryopreserved hepatocytes, hepatocyte thawing (HT) medium, and Krebs-Henseleit buffer (KHB) medium. The stock solution concentration was 1 M in DMSO and was then diluted further in acetonitrile/water (1:1 v/v). All other chemicals were purchased from Sigma-Aldrich (St. Louis, MO) or Thermo Fisher Scientific (Waltham, MA).
The quench solution used to stop reactions in the hepatocyte incubations was comprised of 100% (v/v) acetonitrile. Internal Standard/Quench (IS/Q) solution used to stop reactions with the positive control also contained 200 nM Labetalol.
Metabolic Stability in Cryopreserved Hepatocytes: Test compounds, or the positive control metabolic substrate, was incubated in suspensions of cryopreserved hepatocytes at a final concentration of 1 μM. Vials containing cryopreserved hepatocytes were removed from liquid nitrogen and immediately immersed in a 37° C. water bath. The vials were swirled gently until the contents had thawed. They were then immediately emptied into 48 mL of pre-warmed thawing medium in a 50 mL conical tube. Cells remaining in the vial were re-suspended with 1.0 mL of pre-warmed thawing medium and added to the conical tube. The tube was capped and then gently inverted several times to re-suspend the hepatocytes. The cell suspension was centrifuged at 500×g for 10 minutes at room temperature and the supernatant discarded. The cell pellet was loosened by gently swirling the centrifuge tube. Non-supplemented KHB medium was added to obtain the appropriate target cell density. The viabilities of all cell preparations were ≥85%, assessed by Trypan blue dye exclusion.
For incubations, aliquots of hepatocyte suspension (250 μL containing a cell concentration of 2×10^6 cells/mL) were added to 250 μL of 2 μM substrate (test compound or positive control) in supplemented KHB in duplicate wells in a 24-well plate. Final concentration in the incubations were 1×10^6 cells/mL and 1 μM substrate. A cell-free control incubation (KHB only) was also included. The incubations were carried out with gentle shaking in a 37° C. incubator under a humid atmosphere of 95% air/5% CO2 (v/v). Aliquots (100 μL) were removed after 0, 1, 3, and 6 hours and added to 200 μL quenching solution. The samples were then placed on a shaker for 10 min followed by centrifugation at 3000×g for 20 min. The supernatant was transferred to a new plate and diluted with 100 μL of water to reduce the organic content and then placed on a shaker for 10 mins. Samples were injected and analyzed with methods described below.
Liquid Chromatography: Quantification of positive control and test compound was performed by analyte/internal standard peak area ratios (PAR) measured on a Thermo Scientific™ Q Exactive™ Hybrid Quadrupole-Orbitrap Mass Spectrometer MS/MS with an electrospray interface operating in positive ion mode. The mass spectrometer was coupled to a Dionex Ultimate® 3000 HPLC system. Samples (10 μL aliquots) were injected with a Leap Technologies HTC PAL autosampler. For positive control, the column used was a Thermo Scientific™ Hypersil GOLD™ HPLC column ([…], 50×2.1 mm). Mobile phase A consisted of 95% (v/v) water, 5% (v/v) acetonitrile, and contained 0.1% (v/v) formic acid (FA). Mobile phase B consisted of 95% (v/v) acetonitrile, 5% (v/v) water, and contained 0.1% (v/v) FA. Elution was achieved, at a flow rate of 0.5 mL/min, by a series of linear gradients: initial condition was 5% B at 0 min, isocratic for 20 seconds; then linear gradient to 95% B over 90 seconds, followed by isocratic for 60 seconds at 95% B, and re-equilibrated to initial conditions over 70 seconds.
Metabolic stabilities of positive control and test compound were determined by measuring the rates of disappearance of the parent with time by determining the % of parent remaining at time t (Ct) {Obach 1997}.
Data (% of parent remaining) were plotted on a semi-log scale and fitted using an exponential fit: […]

[6] = HCT-116, 168 h, 7 days of treatment, CTG, read-out: CC50-HCT116-MTAP^del

SMILES	CC50 at 7 days [1]	solubility at 24 h [2]	Selectivity [3]	plasma-adjusted CC50 (paCC50) ([3]; HCT-116)	CC50 [3, 6]	Papp A→B at 2 h, 1 µM [4]	Human Predicted Hepatocyte CL [5]	CC50 ([3]; HCT-116, cell viability, class symbols, read-out: CC50)
Cc1ncc2c(N)nc3cnc(C(=O)N4CCC[C@@H]5Oc6cc(C(F)(F)F)cc(F)c6[C@@H]54)cc3n12 [Fg-67, (4-amino-1-methylimidazo[1,5-a]pyrido[3,4-e]pyrazin-8-yl)((4aS,9bS)-9-fluoro-7-(trifluoromethyl)-3,4,4a,9b-tetrahydrobenzofuro[3,2-b]pyridin-1(2H)-yl)methanone]	4260 nM	1.7 µM (≈ 0.827 µg/mL)	112	402 nM	38 nM	18.5 ×10⁻⁶ cm/s	4 mL/min/kg	
[2H]C1([2H])CC[C@@H]2Oc3cc(C(F)(F)F)ccc3[C@@H]2N1C(=O)c1cc2c(cc1F)nc(N)c1cncn12 [Ff-121, (4-amino-7-fluoroimidazo[1,5-a]quinoxalin-8-yl)((4aS,9bS)-7-(trifluoromethyl)-3,4,4a,9b-tetrahydrobenzofuro[3,2-b]pyridin-1(2H)-yl-2,2-d2)methanone]	459 nM	4 µM (≈ 1.89 µg/mL)	153	106 nM	3 nM	15.1 ×10⁻⁶ cm/s	8 mL/min/kg	< 100 nM
